Data: ChEMBL document CHEMBL2203079, “Virtual screening and QSAR study of some pyrrolidine derivatives as α-mannosidase inhibitors for binding feature analysis” (Bioorg Med Chem, 2012)
Calls of active or inactive are those of the source. No cut-off for these calls is given here.

Columns and labels:
[1] = system: Canavalia ensiformis; assay: Inhibition of jack bean alpha-mannosidase assessed as p-nitrophenylglycoside substrate hydrolysis at 1 mM
[2] = system: Prunus dulcis; assay: Inhibition of almond alpha-mannosidase assessed as p-nitrophenylglycoside substrate hydrolysis at 1 mM
[3] = molecular target: T1, Alpha-mannosidase 2 (Homo sapiens, UniProt Q16706); assay: Inhibition of human golgi alpha mannosidase 2
T1 sequence (Q16706 whole entry): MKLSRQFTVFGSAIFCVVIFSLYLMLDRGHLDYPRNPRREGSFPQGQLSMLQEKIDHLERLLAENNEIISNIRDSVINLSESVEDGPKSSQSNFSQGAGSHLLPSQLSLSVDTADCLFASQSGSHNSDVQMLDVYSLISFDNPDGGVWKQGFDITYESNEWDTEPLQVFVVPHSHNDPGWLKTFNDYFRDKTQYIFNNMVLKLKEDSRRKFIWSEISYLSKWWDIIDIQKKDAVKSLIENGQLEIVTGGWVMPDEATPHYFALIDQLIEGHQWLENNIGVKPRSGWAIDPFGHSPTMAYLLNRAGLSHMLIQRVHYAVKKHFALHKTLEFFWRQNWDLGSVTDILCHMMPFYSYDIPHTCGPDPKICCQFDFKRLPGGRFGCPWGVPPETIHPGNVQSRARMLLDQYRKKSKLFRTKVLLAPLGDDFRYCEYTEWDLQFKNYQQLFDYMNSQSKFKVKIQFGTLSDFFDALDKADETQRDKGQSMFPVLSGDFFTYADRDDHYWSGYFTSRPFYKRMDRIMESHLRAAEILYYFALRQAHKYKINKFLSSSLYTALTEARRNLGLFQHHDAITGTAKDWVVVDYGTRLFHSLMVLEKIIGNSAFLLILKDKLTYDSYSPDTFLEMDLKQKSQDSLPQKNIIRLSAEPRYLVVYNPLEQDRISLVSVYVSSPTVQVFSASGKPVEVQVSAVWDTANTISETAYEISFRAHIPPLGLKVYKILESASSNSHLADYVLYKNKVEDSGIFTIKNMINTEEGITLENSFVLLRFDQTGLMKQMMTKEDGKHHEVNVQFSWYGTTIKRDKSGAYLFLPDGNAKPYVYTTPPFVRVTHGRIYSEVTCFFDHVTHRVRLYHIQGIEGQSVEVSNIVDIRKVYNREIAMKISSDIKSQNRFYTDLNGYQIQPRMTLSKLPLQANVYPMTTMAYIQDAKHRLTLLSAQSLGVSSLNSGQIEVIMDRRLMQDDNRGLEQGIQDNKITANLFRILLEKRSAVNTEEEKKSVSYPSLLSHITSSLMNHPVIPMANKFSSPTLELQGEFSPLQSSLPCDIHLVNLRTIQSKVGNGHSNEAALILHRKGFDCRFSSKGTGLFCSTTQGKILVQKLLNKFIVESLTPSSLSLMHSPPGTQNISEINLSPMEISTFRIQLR

[4] = molecular target: T2, Endoplasmic reticulum mannosyl-oligosaccharide 1,2-alpha-mannosidase (Homo sapiens, UniProt Q9UKM7); assay: Inhibition of human ER alpha mannosidase 1
T2 sequence (Q9UKM7 whole entry): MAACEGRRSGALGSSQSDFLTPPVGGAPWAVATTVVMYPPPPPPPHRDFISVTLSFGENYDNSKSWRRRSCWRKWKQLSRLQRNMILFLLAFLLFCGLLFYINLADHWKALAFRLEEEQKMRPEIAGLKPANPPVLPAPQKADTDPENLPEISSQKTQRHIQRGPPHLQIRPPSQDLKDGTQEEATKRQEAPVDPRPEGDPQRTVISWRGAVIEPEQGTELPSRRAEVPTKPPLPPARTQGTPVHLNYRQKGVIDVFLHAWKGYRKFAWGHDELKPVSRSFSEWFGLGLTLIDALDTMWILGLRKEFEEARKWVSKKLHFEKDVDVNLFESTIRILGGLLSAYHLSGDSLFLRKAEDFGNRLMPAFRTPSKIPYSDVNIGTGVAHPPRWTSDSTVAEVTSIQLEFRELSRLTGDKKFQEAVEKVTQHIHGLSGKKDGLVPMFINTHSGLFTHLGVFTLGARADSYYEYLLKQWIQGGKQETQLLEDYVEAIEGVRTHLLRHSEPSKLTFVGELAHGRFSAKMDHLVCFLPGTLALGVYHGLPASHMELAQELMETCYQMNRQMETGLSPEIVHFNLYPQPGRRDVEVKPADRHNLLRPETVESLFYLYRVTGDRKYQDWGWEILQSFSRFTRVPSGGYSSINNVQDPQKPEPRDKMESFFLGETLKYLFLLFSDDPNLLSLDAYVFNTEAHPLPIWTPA

With `O[C@H]1[C@@H](O)CN[C@@H]1CNCc1cccs1` the inhibition [1] was 89%, the inhibition [2] was 68% and the Ki [3] was 233 µM. For the same molecule, the Ki [4] was 77.7 µM.

Molecule `O[C@H]1[C@@H](O)CN[C@@H]1CNCC1CCN(Cc2ccccc2)CC1` has an inhibition [1] of 55%, an inhibition [2] of 59% and a Ki [3] of 43.2 µM. It also gave a Ki [4] of 13.1 µM.

In the case of `OC[C@H]1NC[C@H](O)[C@@H]1O` [IMINORIBITOL], the inhibition [1] is reported as 54%, the inhibition [2] is reported as 37% and the Ki [3] is reported as 1430 µM. It also gave a Ki [4] of 1.26 µM.

Work on `O[C@H]1[C@@H](O)CN[C@@H]1CNCc1ccco1` yielded an inhibition [1] of 49%, an inhibition [2] of 29% and a Ki [3] of 292 µM. For the same molecule, the Ki [4] was 136 µM.

Work on `O[C@H]1[C@@H](O)CN[C@@H]1CN[C@@H](c1ccccc1)[C@H](O)c1ccccc1` yielded an inhibition [1] of 84%, an inhibition [2] of 50% and a Ki [3] of 25.9 µM. For the same molecule, the Ki [4] was 2.62 µM.

`NC[C@H]1NC[C@H](O)[C@@H]1O` showed an inhibition [1] of 81%, an inhibition [2] of 51% and a Ki [3] of 1310 µM. For the same molecule, the Ki [4] was 1.59 µM.

For `OC(O)C[C@H]1NC[C@H](O)[C@@H]1O`, the inhibition [1] was 81%, the Ki [3] was 438 µM and the Ki [4] was 287 µM.

`C[C@H](O)NC[C@H]1NC[C@H](O)[C@@H]1O` gave an inhibition [1] of 66%, an inhibition [2] of 45% and a Ki [3] of 683 µM. For the same molecule, the Ki [4] was 488 µM.

For `O[C@H]1[C@@H](O)CN[C@@H]1CCNc1ccccc1`, the inhibition [1] was 33%, the inhibition [2] was “inactive” and the Ki [3] was 123 µM. For the same molecule, the Ki [4] was 74.3 µM.

`O[C@H]1[C@@H](O)CN[C@@H]1CNC1CCCC1` was tested, and the inhibition [1] was 60%, the inhibition [2] was 53% and the Ki [3] was 333 µM. For the same molecule, the Ki [4] was 66.9 µM.

In the case of `OCC(O)[C@H]1NC[C@H](O)[C@@H]1O` (stereo partly specified), the inhibition [1] is reported as “inactive”, the inhibition [2] is reported as “inactive” and the Ki [3] is reported as 229 µM. For the same molecule, the Ki [4] was 169 µM.

For `C[C@@H](O)NC[C@H]1NC[C@H](O)[C@@H]1O`, the inhibition [1] was 75%, the inhibition [2] was 39% and the Ki [3] was 450 µM. The Ki [4] was 918 µM.

Work on `CC(NC[C@H]1NC[C@H](O)[C@@H]1O)c1ccccc1` (stereo partly specified) yielded an inhibition [1] of 66%, an inhibition [2] of 48% and a Ki [3] of 82.3 µM. The Ki [4] was 28.1 µM.

Work on `O[C@H]1[C@@H](O)CN[C@@H]1CN[C@H](c1ccccc1)[C@@H](O)c1ccccc1` yielded an inhibition [1] of 88%, an inhibition [2] of 55% and a Ki [3] of 7.77 µM. It also gave a Ki [4] of 0.79 µM.

`O[C@@H]1CNC[C@@H]1O` showed an inhibition [1] of 70%, an inhibition [2] of 40% and a Ki [3] of 531 µM. It also gave a Ki [4] of 3.24 µM.

For `O=C(NC[C@H](NC[C@H]1NC[C@H](O)[C@@H]1O)c1ccccc1)c1ccccc1Br`, the inhibition [1] was 89%, the Ki [3] was 4.35 µM and the Ki [4] was 0.16 µM.

Work on `OC[C@H](NC[C@H]1N[C@H](CO)[C@H](O)[C@@H]1O)c1ccccc1` yielded an inhibition [1] of 98%, an inhibition [2] of 96% and a Ki [3] of 11.8 µM. It also gave a Ki [4] of 24.6 µM.

`COC[C@H](NC[C@H]1NC[C@H](O)[C@@H]1O)c1ccccc1` was tested, and the inhibition [1] was 77%, the inhibition [2] was 63% and the Ki [3] was 36 µM. For the same molecule, the Ki [4] was 12.1 µM.

For `O[C@H]1[C@@H](O)CN[C@@H]1CN[C@@H](COCc1ccccc1)c1ccccc1`, the inhibition [1] was 92%, the inhibition [2] was 75% and the Ki [3] was 68.3 µM. It also gave a Ki [4] of 0.23 µM.

For `O[C@H]1[C@@H](O)CN[C@@H]1CN[C@@H](COCOc1ccc(F)cc1)c1ccccc1`, the inhibition [1] was 92%, the Ki [3] was 6.47 µM and the Ki [4] was 0.44 µM.

In the case of `CC(NC[C@H]1NC[C@H](O)[C@@H]1O)C(O)(c1ccccc1)c1ccccc1` (stereo partly specified), the inhibition [1] is reported as “inactive”, the inhibition [2] is reported as “inactive” and the Ki [3] is reported as 80.8 µM. It also gave a Ki [4] of 27.1 µM.

Molecule `O[C@H]1[C@@H](O)CN[C@@H]1CN[C@@H](COCOc1ccc(Br)cc1)c1ccccc1` has an inhibition [1] of 92%, a Ki [3] of 15.5 µM and a Ki [4] of 0.31 µM.

Molecule `O[C@H]1[C@@H](O)CN[C@@H]1CN[C@@H](COCOc1ccccc1F)c1ccccc1` has an inhibition [1] of 83%, a Ki [3] of 11.3 µM and a Ki [4] of 0.91 µM.

`O[C@H]1[C@@H](O)CN[C@@H]1CN[C@@H](COCc1cccc(F)c1)c1ccccc1` was tested, and the inhibition [1] was 99%, the Ki [3] was 9.14 µM and the Ki [4] was 0.76 µM.

Work on `O[C@H]1[C@@H](O)CN[C@@H]1CNCn1ccnc1` yielded an inhibition [1] of 55%, an inhibition [2] of 59% and a Ki [3] of 568 µM. For the same molecule, the Ki [4] was 326 µM.

`O[C@H]1[C@@H](O)CN[C@@H]1CNCc1ccccc1` showed an inhibition [1] of 92%, a Ki [3] of 152 µM and a Ki [4] of 35 µM.

In the case of `CC(=O)N(CNC[C@H]1NC[C@H](O)[C@@H]1O)Cc1ccccc1`, the inhibition [1] is reported as “inactive”, the inhibition [2] is reported as “inactive” and the Ki [3] is reported as 64.9 µM. The Ki [4] was 44.8 µM.

With `OC[C@H](NC[C@H]1NC[C@H](O)[C@@H]1O)c1ccccc1` the inhibition [2] was 93%, the Ki [3] was 26.9 µM and the Ki [4] was 16.8 µM.

`O[C@H]1[C@@H](O)CN[C@@H]1CN[C@@H](COCOc1cccc(Br)c1)c1ccccc1` showed an inhibition [1] of 79%, a Ki [3] of 12.8 µM and a Ki [4] of 0.31 µM.

In the case of `OC[C@@H](NC[C@H]1NC[C@H](O)[C@@H]1O)c1ccccc1`, the inhibition [1] is reported as 92%, the inhibition [2] is reported as 55% and the Ki [3] is reported as 29.9 µM. The Ki [4] was 12 µM.
